Results as given in patent publication US9464071B2 (priority 2010, dated 2016).
“And” between values parts separate entries of the source, which are not always exact repeats. Equal entries are not always repeated.

| Structure (SMILES) | melting point |
| --- | --- |
| C#CCN(c1cc(OC)cc(OC)c1)c1ccc2ncc(-c3cnn(C)c3)nc2c1 [Compound 38] | 168 °C |
| COc1cc(OC)cc(N(CCN2C[C@H](C)C[C@H](C)C2)c2ccc3ncc(-c4cnn(C)c4)nc3c2)c1 [Compound 39] | 80 °C |
| COc1cc(OC)cc(N(CCCNS(C)(=O)=O)c2ccc3ncc(-c4cnn(C)c4)nc3c2)c1 [Compound 48] | 189 °C and 189.27 °C |
| c1ccc(N(CC2CC2)c2ccc3ncc(-c4cn[nH]c4)nc3c2)cc1 [Compound 54] | 138 °C |
| COc1cc(OC)cc(N(CC2CC2)c2ccc3ncc(-c4cnn(S(=O)(=O)N(C)C)c4)nc3c2)c1 [Compound 58] | 163 °C and 165 °C |
| COc1cc(OC)cc(N(CC(O)CO)c2ccc3ncc(-c4cnn(C)c4)nc3c2)c1 (stereo not shown) [Compound 75] | 186 °C and 186.76 °C and 187 °C |
| COc1cc(OC)cc(N(CC(C)(C)O)c2ccc3ncc(-c4cnn(C)c4)nc3c2)c1 [Compound 78] | 162 °C and 162.1 °C |
| COc1cc(OC)cc(N(C/C(C)=N/O)c2ccc3ncc(-c4cnn(C)c4)nc3c2)c1 [Compound 80] | 144 °C |
| COc1cc(OC)cc(N(C/C(C)=N\O)c2ccc3ncc(-c4cnn(C)c4)nc3c2)c1 [Compound 81] | 199 °C |
| COc1cc(OC)cc(N(C[C@@H]2C[C@H]2CO)c2ccc3ncc(-c4cnn(C)c4)nc3c2)c1 [Compound 89] | 126.66 °C and 126 °C |
| COc1cc(OC)cc(N(CCCN)c2ccc3ncc(-c4cnn(C)c4)nc3c2)c1 [Compound 93, N-(3,5-Dimethoxyphenyl)-N-[3-(1-methyl-1H-pyrazol-4-yl)quinoxalin-6-yl]propane-1,3-diamine] | 175.51 °C and 178 °C |
| COc1cc(OC)cc(N(Cc2nccn2C)c2ccc3ncc(-c4cnn(C)c4)nc3c2)c1 [Compound 101] | 186 °C |
| COc1cc(OC)cc(N(CCC#N)c2ccc3ncc(-c4cnn(C)c4)nc3c2)c1 [Compound 122] | 202.94 °C |
| COc1cc(OC)cc(N(CC(O)CN)c2ccc3ncc(-c4cnn(C)c4)nc3c2)c1 (stereo not shown) [Compound 125] | 99 °C and 99.31 °C |
| COc1cc(OC)cc(N(CCCN2CCCC2=O)c2ccc3ncc(-c4cnn(C)c4)nc3c2)c1 [Compound 132, 1-(3-{(3,5-Dimethoxyphenyl)[3-(1-methyl-1H-pyrazol-4-yl)quinoxalin-6-yl]amino}propyl)pyrrolidin-2-one] | 132.47 °C |
| COc1cc(OC)cc(N(CCN2CC[C@H](C#N)C2)c2ccc3ncc(-c4cnn(C)c4)nc3c2)c1 [Compound 133, (3S)-1-(2-{(3,5-Dimethoxyphenyl)[3-(1-methyl-1H-pyrazol-4-yl)quinoxalin-6-yl]amino}ethyl)pyrrolidine-3-carbonitrile] | 126.47 °C |
| COc1cc(OC)cc(N(CCNCCC#N)c2ccc3ncc(-c4cnn(C)c4)nc3c2)c1 [Compound 140, 3-[(2-{(3,5-Dimethoxyphenyl)[3-(1-methyl-1H-pyrazol-4-yl)quinoxalin-6-yl]amino}ethyl)amino]propanenitrile] | 123.19 °C |
| COc1cc(OC)cc(N(CCC(C)(C)O)c2ccc3ncc(-c4cnn(C)c4)nc3c2)c1 [Compound 141, 4-{(3,5-Dimethoxyphenyl)[3-(1-methyl-1H-pyrazol-4-yl)quinoxalin-6-yl]amino}-2-methylbutan-2-ol] | 150 °C |
| COc1cc(OC)cc(N(CCN2CCN(C(C)=O)CC2)c2ccc3ncc(-c4cnn(C)c4)nc3c2)c1 [Compound 143, N-[2-(4-Acetylpiperazin-1-yl)ethyl]-N-(3,5-dimethoxyphenyl)-3-(1-methyl-1H-pyrazol-4-yl)quinoxalin-6-amine] | 184.72 °C |
| COc1cc(OC)cc(N(Cc2cnccn2)c2ccc3ncc(-c4cnn(C)c4)nc3c2)c1 [Compound 146, N-(3,5-Dimethoxyphenyl)-3-(1-methyl-1H-pyrazol-4-yl)-N-(pyrazin-2-ylmethyl)quinoxalin-6-amine] | 163 °C |
| Cn1cc(-c2ccc3ncc(N(CC4CC4)c4cccc(OC(F)F)c4)nc3c2)cn1 [Compound 209] | 166.2 °C |
| COc1cc(OC)cc(N(CC2CC2)c2ccc3ncc(-c4cnn(CC(=O)N(C)C)c4)nc3c2)c1 [Compound 212] | 145.81 °C |

| Structure (SMILES) | melting point |
| --- | --- |
| COc1cc(C)cc(N(CC2CC2)c2ccc3ncc(-c4cnn(C)c4)nc3c2)c1 [Compound 228] | 132 °C |
| COc1cc(OC)cc(N(CC2CC2)c2ccc3ncc(-c4cnn(CCCNCCS(C)(=O)=O)c4)nc3c2)c1 [Compound 231] | 106.81 °C |
| COc1cc(OC)cc(N(CCO)c2ccc3ncc(-c4cnn(CCCN)c4)nc3c2)c1 [Compound 238] | 133.66 °C |
| COc1cc(OC)cc(N(CCCC#N)c2ccc3ncc(-c4cnn(C)c4)nc3c2)c1 [Compound 242] | 196.25 °C |
| COc1cc(OC)cc(N(CCNS(C)(=O)=O)c2ccc3ncc(-c4cnn(C)c4)nc3c2)c1 [Compound 262] | 130.64 °C |
| COc1cc(OC)cc(N(Cc2csc(C)n2)c2ccc3ncc(-c4cnn(C)c4)nc3c2)c1 [Compound 263] | 168.45 °C |
| COc1cc(OC(C)C)cc(N(CC2CC2)c2ccc3ncc(-c4cnn(C)c4)nc3c2)c1 [Compound 269] | 155.79 °C |
| COc1cc(OC)cc(N(CC2CC2)c2ccc3ncc(-c4cnn(CCNS(C)(=O)=O)c4)nc3c2)c1 [Compound 271] | 181.91 °C |
| COc1cc(OC)cc(N(CCCN2CCCC2)c2ccc3ncc(-c4cnn(CCS(C)(=O)=O)c4)nc3c2)c1 [Compound 295] | 155.31 °C |
| COc1cc(OC)cc(N(CCN2CCOCC2)c2ccc3ncc(-c4cnn(C)c4)nc3c2)c1 [Compound 299] | 201 °C |
| CNC(=O)c1cc(OC)cc(N(CC2CC2)c2ccc3ncc(-c4cn[nH]c4)nc3c2)c1 [Compound 311] | 262.42 °C |
| CNC(=O)Cn1cc(-c2cnc3ccc(N(CCCO)c4cc(OC)cc(OC)c4)cc3n2)cn1 [Compound 313] | 176 °C and 176.49 °C |
| COc1cc(F)cc(N(CCO)c2ccc3ncc(-c4cnn(CCO)c4)nc3c2)c1 [Compound 315] | 139 °C |
| COc1cc(OC)cc(N(CCCNS(=O)(=O)N(C)C)c2ccc3ncc(-c4cnn(C)c4)nc3c2)c1 [Compound 316] | 158.73 °C |
| COc1cc(OC)cc(N(Cc2ccc(Cl)s2)c2ccc3ncc(-c4cn[nH]c4)nc3c2)c1 [Compound 323] | 166.37 °C |
| CCS(=O)(=O)NCCN(c1cc(OC)cc(OC)c1)c1ccc2ncc(-c3cnn(C)c3)nc2c1 [Compound 335] | 122.79 °C |
| COc1cc(OC)cc(N(CCCN)c2ccc3ncc(-c4cn[nH]c4)nc3c2)c1 [Compound 338] | 198.91 °C |
| COc1cc(OC)cc(N(Cc2ccc(Cl)s2)c2ccc3ncc(-c4cnn(CCO)c4)nc3c2)c1 [Compound 340] | 184.2 °C |
| CCOC(=O)C1CCN(CCN(c2cc(OC)cc(OC)c2)c2ccc3ncc(-c4cnn(C)c4)nc3c2)CC1 [Compound 343] | 80 °C |
| COc1cc(OC)cc(N(CC2CCOCC2)c2ccc3ncc(-c4cnn(C)c4)nc3c2)c1 [Compound 356] | 154.94 °C |
| COc1cc(OC)cc(N(CC(O)CN2CCC(F)(F)C2)c2ccc3ncc(-c4cnn(C)c4)nc3c2)c1 (stereo not shown) [Compound 374] | 206.48 °C |
